# Results taken from publication PMC12030650, “Synthesis, Antitumor Activities, and Apoptosis-Inducing Activities of Schiff’s Bases Incorporating Imidazolidine-2,4-dione Scaffold: Molecular Docking Studies and Enzymatic Inhibition Activities” (Pharmaceuticals, 2025).
# Where “and” joins values, the source holds several entries; their conditions need not be identical. Equal values may be shown once. Read-outs that look alike come from different tables or passages of the source.
# Tests used:
# [1] = test system: breast adenocarcinoma (MCF-7); assay: MTT cytotoxicity assay, MCF-7; settings: for IC50: Homo sapiens, MCF7, read-out: IC50 MCF-7; for SI (selectivity index) MCF-7: WI-38 vs MCF-7
# hepatoblastoma (HePG-2) = assay: MTT cytotoxicity assay, HePG-2; settings: for IC50: Homo sapiens, HepG2, read-out: IC50 HePG-2; for SI (selectivity index) HePG-2: WI-38 vs HePG-2
# [2] = test system: human colorectal carcinoma (HCT-116); assay: MTT cytotoxicity assay, HCT-116; settings: for IC50: Homo sapiens, HCT-116, read-out: IC50 HCT-116; for SI (selectivity index) HCT-116: WI-38 vs HCT-116
# EGFR = biological target: T1, EGFR (Homo sapiens, UniProt P00533); assay: In vitro luminescent EGFR tyrosine kinase assay (Kinase-Glo Max); type: biochemical; settings: read-out: Kinase Inhibition IC50 EGFR
# T1 construct: purchased BPS Bioscience 40321
# T1 sequence (P00533 25-1210): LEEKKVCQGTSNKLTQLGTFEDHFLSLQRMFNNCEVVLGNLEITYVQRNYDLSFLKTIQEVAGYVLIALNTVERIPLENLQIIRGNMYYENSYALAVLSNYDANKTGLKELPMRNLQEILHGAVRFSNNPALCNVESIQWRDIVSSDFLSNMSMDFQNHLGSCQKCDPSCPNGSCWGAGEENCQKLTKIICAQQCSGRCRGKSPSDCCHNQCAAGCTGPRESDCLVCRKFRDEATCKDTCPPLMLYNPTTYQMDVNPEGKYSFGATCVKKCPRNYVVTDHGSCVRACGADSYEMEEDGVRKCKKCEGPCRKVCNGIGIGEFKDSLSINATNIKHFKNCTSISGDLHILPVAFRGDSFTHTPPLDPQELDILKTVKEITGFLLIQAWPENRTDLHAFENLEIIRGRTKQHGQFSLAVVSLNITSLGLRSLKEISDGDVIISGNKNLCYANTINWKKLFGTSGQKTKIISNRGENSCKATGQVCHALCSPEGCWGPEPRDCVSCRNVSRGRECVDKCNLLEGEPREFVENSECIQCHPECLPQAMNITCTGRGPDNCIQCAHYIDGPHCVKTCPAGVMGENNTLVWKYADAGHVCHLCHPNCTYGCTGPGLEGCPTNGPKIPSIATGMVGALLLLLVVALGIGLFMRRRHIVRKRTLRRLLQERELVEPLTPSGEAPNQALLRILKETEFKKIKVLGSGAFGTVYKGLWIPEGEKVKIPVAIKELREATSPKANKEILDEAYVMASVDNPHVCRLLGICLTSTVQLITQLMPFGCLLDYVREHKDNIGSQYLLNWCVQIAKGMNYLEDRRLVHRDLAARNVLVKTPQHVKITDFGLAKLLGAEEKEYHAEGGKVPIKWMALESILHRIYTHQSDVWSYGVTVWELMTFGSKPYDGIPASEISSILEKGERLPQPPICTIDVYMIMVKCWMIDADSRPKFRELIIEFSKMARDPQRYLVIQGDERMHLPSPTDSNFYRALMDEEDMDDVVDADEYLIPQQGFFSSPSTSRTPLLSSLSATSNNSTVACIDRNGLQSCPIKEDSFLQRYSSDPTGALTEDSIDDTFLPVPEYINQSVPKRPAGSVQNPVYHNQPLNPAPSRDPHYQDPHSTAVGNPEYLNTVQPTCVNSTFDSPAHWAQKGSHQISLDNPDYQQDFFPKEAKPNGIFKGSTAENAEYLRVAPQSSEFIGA
# [3] = test system: HCT-116, HePG-2, and MCF-7; assay: MTT cytotoxicity, summary over the examined cancer cell lines; settings: Homo sapiens
# HER2 = biological target: T2, HER2 (Homo sapiens, UniProt P04626); assay: In vitro luminescent HER2 tyrosine kinase assay (Kinase-Glo Max); type: biochemical; settings: read-out: Kinase Inhibition IC50 HER2
# T2 construct: purchased BPS Bioscience 40721
# T2 sequence (P04626 23-1255): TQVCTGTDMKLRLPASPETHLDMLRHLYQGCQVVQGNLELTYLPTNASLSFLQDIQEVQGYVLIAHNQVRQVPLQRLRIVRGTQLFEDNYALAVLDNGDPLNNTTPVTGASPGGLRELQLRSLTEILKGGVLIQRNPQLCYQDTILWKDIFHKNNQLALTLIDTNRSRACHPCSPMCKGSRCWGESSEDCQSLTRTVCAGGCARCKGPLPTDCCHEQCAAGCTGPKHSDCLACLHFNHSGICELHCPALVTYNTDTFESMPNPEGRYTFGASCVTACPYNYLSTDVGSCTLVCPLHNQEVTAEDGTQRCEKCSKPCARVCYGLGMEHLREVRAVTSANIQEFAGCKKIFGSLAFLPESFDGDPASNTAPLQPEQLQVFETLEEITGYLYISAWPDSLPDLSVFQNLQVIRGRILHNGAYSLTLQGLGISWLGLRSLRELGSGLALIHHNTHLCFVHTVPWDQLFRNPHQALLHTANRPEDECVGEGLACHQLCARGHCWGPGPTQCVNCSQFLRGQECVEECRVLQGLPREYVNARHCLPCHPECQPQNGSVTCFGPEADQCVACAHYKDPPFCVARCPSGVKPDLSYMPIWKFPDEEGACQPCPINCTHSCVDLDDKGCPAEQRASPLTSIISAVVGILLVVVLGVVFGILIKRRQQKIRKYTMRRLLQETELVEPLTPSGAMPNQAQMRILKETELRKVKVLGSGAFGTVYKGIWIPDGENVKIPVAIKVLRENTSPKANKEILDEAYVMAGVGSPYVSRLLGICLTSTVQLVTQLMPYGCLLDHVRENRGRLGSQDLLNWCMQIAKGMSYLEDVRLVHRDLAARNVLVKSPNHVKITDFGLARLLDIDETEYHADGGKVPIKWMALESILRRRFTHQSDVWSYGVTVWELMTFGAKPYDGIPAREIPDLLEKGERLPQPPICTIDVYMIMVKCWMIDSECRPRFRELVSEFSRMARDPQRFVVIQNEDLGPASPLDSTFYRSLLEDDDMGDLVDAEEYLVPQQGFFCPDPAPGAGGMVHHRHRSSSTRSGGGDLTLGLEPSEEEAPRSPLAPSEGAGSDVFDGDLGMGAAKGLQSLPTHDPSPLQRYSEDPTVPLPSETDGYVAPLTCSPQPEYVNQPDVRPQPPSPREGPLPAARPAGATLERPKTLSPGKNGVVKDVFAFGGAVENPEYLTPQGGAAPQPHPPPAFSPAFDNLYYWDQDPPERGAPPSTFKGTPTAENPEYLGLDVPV
# Procedure: […]. Erlotinib was probed as the standard drug in the EGFR inhibition assay, while lapatinib was tested as the […]. […].
# EGFR and HER2 kinase inhibitory activities were determined based on the manufacturer’s guidelines (EGFR Kinase Assay Kit Catalog no. 40321 and HER2 Kinase Assay Kit Catalog no. 40721, BPS Bioscience, San Diego, CA).
# [4] = test system: WI-38 normal fibroblast cell line; assay: MTT cytotoxicity against normal human cells; type: cell-based; settings: for IC50: Homo sapiens
# Procedure: The evaluation was conducted using a 3-(4,5-dimethylthiazol-2-yl)-2,5-diphenyltetrazolium bromide (MTT) assay, as described by the authors of [50, 51]. The cell lines were obtained from ATCC. For comparative purposes, standard drugs, such as doxorubicin and erlotinib, were employed.
# [5] = test system: anti-apoptotic protein MCL-1 in MCF-7; assay: MCL-1 expression in MCF-7 cells (ELISA); type: cell-based, human
# Procedure: (§1) Apoptosis is regulated by intrinsic pathways such as the B-cell lymphoma-2 (BCL-2) family. […] MCL-1, one of the BCL-2 family members, is likely to have a significant role in cell death. The expression of MCL-1 and BCL-2 in MCF-7 cells treated with different concentrations was studied.
# (§2) Apoptosis of the MCF-7 cancer cell line was measured using the Human MCL1eia kit (ELISA Kit) for the MCL-1 enzyme assay and the Invitrogen Zymed® Bcl-2 ELISA Kit for the BCL-2 enzyme assay. The ROBONIK P2000 ELISA READER was used for analysis.
# [6] = test system: anti-apoptotic protein BCL-2 in MCF-7; assay: BCL-2 expression in MCF-7 cells (ELISA); type: cell-based, human
# Procedure: as §1, §2
# MCF-7 cell line = assay: Cell cycle analysis (propidium iodide, flow cytometry); type: cell-based, human
# From the text: Cell cycle analysis is used to quantify DNA content distribution via flow cytometry at various cell cycle stages (pre-G1, G1, S, and G2/M). Compound 24 was selected to analyze its effect on cell cycle progression in the MCF-7 cell line at different concentrations.
# Cancer cell line MCF-7 was stained with ab139418_Propidium Iodide (DNA stain) and analyzed using a FACSCalibur flow cytometer.
# [7] = read-out: average IC50 versus the examined cell lines
# [8] = normal fibroblast WI-38, read-out: IC50 WI-38
# [9] = read-out: IC50 range against the selected cell lines
SMILES,IC50 [1],IC50 (hepatoblastoma (HePG-2)),IC50 [2],other results
"CC(=NNC(=O)CN1C(=O)NC(c2ccccc2)(c2ccccc2)C1=O)c1ccccc1 [Compound 7, 2-(2,5-Dioxo-4,4-diphenylimidazolidin-1-yl)-N′-(1-phenylethylidene)acetohydrazide]",38.3 ± 2.2 µM,55.8 ± 3.3 µM,47.5 ± 2.8 µM,–
"CC(=NNC(=O)CN1C(=O)NC(c2ccccc2)(c2ccccc2)C1=O)c1ccccc1C [Compound 8, 2-(2,5-Dioxo-4,4-diphenylimidazolidin-1-yl)-N′-(1-(o-tolyl)ethylidene)acetohydrazide]",34.1 ± 2 µM,25.4 ± 1.8 µM,37.6 ± 2.3 µM,–
"CC(=NNC(=O)CN1C(=O)NC(c2ccccc2)(c2ccccc2)C1=O)c1ccc(C)cc1 [Compound 9, 2-(2,5-Dioxo-4,4-diphenylimidazolidin-1-yl)-N′-(1-(p-tolyl)ethylidene)acetohydrazide]",69 ± 3.9 µM,29.7 ± 2.1 µM,71.2 ± 3.8 µM,–
"CC(=NNC(=O)CN1C(=O)NC(c2ccccc2)(c2ccccc2)C1=O)c1ccc(Cl)cc1 [Compound 10, N′-(1-(4-Chlorophenyl)ethylidene)-2-(2,5-dioxo-4,4-diphenylimidazolidin-1-yl)acetohydrazide]",11.2 ± 0.9 µM,10.7 ± 0.9 µM,17.9 ± 1.4 µM,"SI (selectivity index) MCF-7 [1]: 4.8 and 4.84; IC50 (EGFR): 0.67 ± 0.03 µM; IC50 [3, 7]: 13.2 µM; IC50 (HER2): 0.71 ± 0.02 µM; SI (selectivity index) HePG-2 (hepatoblastoma (HePG-2)): 5.0 and 5.07; IC50 [4, 8]: 54.2 µM; IC50 WI-38 ([4]; normal fibroblast WI-38): low cytotoxicity; SI (selectivity index) HCT-116 [2]: 3.0 and 3.02"
"CC(=NNC(=O)CN1C(=O)NC(c2ccccc2)(c2ccccc2)C1=O)c1ccc(F)cc1 [Compound 11, 2-(2,5-Dioxo-4,4-diphenylimidazolidin-1-yl)-N′-(1-(4-fluorophenyl)ethylidene)acetohydrazide]",14.2 ± 1.2 µM,21.1 ± 1.8 µM,28.3 ± 2.1 µM,–
"CC(=NNC(=O)CN1C(=O)NC(c2ccccc2)(c2ccccc2)C1=O)c1ccc(C(F)(F)F)cc1 [Compound 12, 2-(2,5-Dioxo-4,4-diphenylimidazolidin-1-yl)-N′-(1-(4-(trifluoromethyl)phenyl)ethylidene)acetohydrazide]",45.8 ± 2.4 µM,47.7 ± 2.7 µM,52.5 ± 3 µM,–
"CC(=NNC(=O)CN1C(=O)NC(c2ccccc2)(c2ccccc2)C1=O)c1ccc(OC(F)(F)F)cc1 [Compound 13, 2-(2,5-Dioxo-4,4-diphenylimidazolidin-1-yl)-N′-(1-(4-(trifluoromethoxy)phenyl)ethylidene)acetohydrazide]",9.58 ± 0.8 µM,13.9 ± 1.2 µM,20.1 ± 1.7 µM,"SI (selectivity index) MCF-7 [1]: 4.7 and 4.73; IC50 (EGFR): 0.61 ± 0.02 µM; IC50 [3, 7]: 14.5 µM; IC50 (HER2): 0.28 ± 0.01 µM; SI (selectivity index) HePG-2 (hepatoblastoma (HePG-2)): 3.2 and 3.25; IC50 [4, 8]: 45.4 µM; IC50 WI-38 ([4]; normal fibroblast WI-38): low cytotoxicity; SI (selectivity index) HCT-116 [2]: 2.2 and 2.25"
"COc1ccccc1C(C)=NNC(=O)CN1C(=O)NC(c2ccccc2)(c2ccccc2)C1=O [Compound 14, 2-(2,5-Dioxo-4,4-diphenylimidazolidin-1-yl)-N′-(1-(2-methoxyphenyl)ethylidene)acetohydrazide]",59.1 ± 3.4 µM,63.3 ± 3.8 µM,74 ± 3.9 µM,–
"COc1cccc(C(C)=NNC(=O)CN2C(=O)NC(c3ccccc3)(c3ccccc3)C2=O)c1 [Compound 15, 2-(2,5-Dioxo-4,4-diphenylimidazolidin-1-yl)-N′-(1-(3-methoxyphenyl)ethylidene)acetohydrazide]",55.3 ± 3.2 µM,45.1 ± 2.5 µM,53.9 ± 3.1 µM,–
"COc1ccc(C(C)=NNC(=O)CN2C(=O)NC(c3ccccc3)(c3ccccc3)C2=O)cc1 [Compound 16, 2-(2,5-Dioxo-4,4-diphenylimidazolidin-1-yl)-N′-(1-(4-methoxyphenyl)ethylidene)acetohydrazide]",35.8 ± 2.1 µM,27.3 ± 2 µM,36.5 ± 2.4 µM,–
"COc1ccc(C(C)=NNC(=O)CN2C(=O)NC(c3ccccc3)(c3ccccc3)C2=O)cc1OC [Compound 17, N′-(1-(3,4-Dimethoxyphenyl)ethylidene)-2-(2,5-dioxo-4,4-diphenylimidazolidin-1-yl)acetohydrazide]",15.7 ± 1.3 µM,19.6 ± 1.7 µM,26.8 ± 2 µM,–
"COc1cc(C(C)=NNC(=O)CN2C(=O)NC(c3ccccc3)(c3ccccc3)C2=O)cc(OC)c1OC [Compound 18, 2-(2,5-Dioxo-4,4-diphenylimidazolidin-1-yl)-N′-(1-(3,4,5-trimethoxyphenyl)ethylidene)acetohydrazide]",26 ± 1.6 µM,37.2 ± 2.3 µM,39.6 ± 2.4 µM,"IC50 [4, 8]: 60.8 µM"
"CC(=NNC(=O)CN1C(=O)NC(c2ccccc2)(c2ccccc2)C1=O)c1ccc([N+](=O)[O-])cc1 [Compound 19, 2-(2,5-Dioxo-4,4-diphenylimidazolidin-1-yl)-N′-(1-(4-nitrophenyl)ethylidene)acetohydrazide]",20.4 ± 1.5 µM,19.9 ± 1.8 µM,31.3 ± 2.1 µM,–
"CC(=NNC(=O)CN1C(=O)NC(c2ccccc2)(c2ccccc2)C1=O)c1ccccn1 [Compound 20, 2-(2,5-Dioxo-4,4-diphenylimidazolidin-1-yl)-N′-(1-(pyridin-2-yl)ethylidene)acetohydrazide]",32.4 ± 1.9 µM,49.1 ± 2.8 µM,46.7 ± 2.7 µM,–
"CC(=NNC(=O)CN1C(=O)NC(c2ccccc2)(c2ccccc2)C1=O)c1ccncc1 [Compound 22, 2-(2,5-Dioxo-4,4-diphenylimidazolidin-1-yl)-N′-(1-(pyridin-4-yl)ethylidene)acetohydrazide]",13.1 ± 1.1 µM,17.2 ± 1.6 µM,26 ± 1.9 µM,–
"CC(=NNC(=O)CN1C(=O)NC(c2ccccc2)(c2ccccc2)C1=O)c1cccc2ccccc12 [Compound 23, 2-(2,5-Dioxo-4,4-diphenylimidazolidin-1-yl)-N′-(1-(naphthalen-1-yl)ethylidene)acetohydrazide]",28.1 ± 1.7 µM,31.8 ± 2.1 µM,34.4 ± 2.3 µM,–
"CC(=NNC(=O)CN1C(=O)NC(c2ccccc2)(c2ccccc2)C1=O)c1ccco1 [Compound 25, 2-(2,5-Dioxo-4,4-diphenylimidazolidin-1-yl)-N′-(1-(furan-2-yl)ethylidene)acetohydrazide]",47.3 ± 2.6 µM,34.6 ± 2.1 µM,49.9 ± 2.9 µM,–
"CC(=NNC(=O)CN1C(=O)NC(c2ccccc2)(c2ccccc2)C1=O)c1cccs1 [Compound 26, 2-(2,5-Dioxo-4,4-diphenylimidazolidin-1-yl)-N′-(1-(thiophen-2-yl)ethylidene)acetohydrazide]",76.8 ± 4.2 µM,32.3 ± 2.2 µM,87.5 ± 4.6 µM,–
"CC(=NNC(=O)CN1C(=O)NC(c2ccccc2)(c2ccccc2)C1=O)c1ccc(Cl)s1 [Compound 27, N′-(1-(5-Chlorothiophen-2-yl)ethylidene)-2-(2,5-dioxo-4,4-diphenylimidazolidin-1-yl)acetohydrazide]",19.7 ± 1.5 µM,16.8 ± 1.6 µM,33.2 ± 2.2 µM,–
"COc1cccc2c1C(=O)c1c(O)c3c(c(O)c1C2=O)C[C@@](O)(C(=O)CO)C[C@@H]3O[C@H]1C[C@H](N)[C@H](O)[C@H](C)O1 [Doxorubicin, reference compound]",–,4.5 ± 0.2 µM,–,"IC50 [3, 9]: 4.17 to 5.23 µM"
"C#Cc1cccc(Nc2ncnc3cc(OCCOC)c(OCCOC)cc23)c1 [Erlotinib, reference compound]",5.18 ± 0.4 µM,7.9 ± 0.6 µM,8.53 ± 0.5 µM,"MCL-1 expression level ([5]; 2 µM): 560.59 pg/mL; MCL-1 expression level ([5]; 10 μM): 162.37 pg/mL; BCL-2 expression level ([6]; 2 µM): 13.96 ng/mL; BCL-2 expression level ([6]; 10 μM): 3.73 ng/mL; IC50 [3, 9]: 5.18 to 8.53 µM; Comment (cell cycle arrest) (MCF-7 cell line): Cell cycle arrest at G2/M; %G0–G1 (MCF-7 cell line; 2 µM): 46.12%; %G2/M (MCF-7 cell line; 2 µM): 31.05%; %S (MCF-7 cell line; 2 µM): 22.83%; %G0–G1 (MCF-7 cell line; 10 μM): 35.89%; %G2/M (MCF-7 cell line; 10 μM): 48.39%; %S (MCF-7 cell line; 10 μM): 15.72%; Comment (cell cycle arrest) (MCF-7 cell line; listed as erlotinib): cell cycle arrest appeared at the G2/M phase; IC50 ([4]; WI-38, read-out: IC50 WI-38): 46.5 µM"
